Measurements taken from ChEMBL document CHEMBL4043290, “Structure-based Design of Pyridone-Aminal eFT508 Targeting Dysregulated Translation by Selective Mitogen-activated Protein Kinase Interacting Kinases 1 and 2 (MNK1/2) Inhibition” (J Med Chem, 2018).
pIC50: −log10 of the molar value. Calls of active or inactive are those of the source. The calls are words filed in the database; no cut-off is given here.

Columns and labels:
[1] = system: Mus musculus; test: Toxicity in NCr nu/nu mouse xenografted with human MDA-MB-231 cells assessed as body weight loss at 1 to 10 mg/kg, po qd administered for 23 days measured twice a week during compound dosing; assay type: organism-based; details: in vivo, 552 h
[2] = molecular target: T1, MAP kinase-interacting serine/threonine-protein kinase 1/2 (Homo sapiens, UniProt Q9HBH9+Q9BUB5); test: Inhibition of MNK1/2 in human TMD8 cells assessed as decrease in IL-8 levels after 48 hrs by ELISA; assay type: cell-based
[3] = system: Mus musculus; test: Toxicity in NOD SCID mouse xenografted with human TMD8 cells assessed as body weight loss at 1 to 10 mg/kg, po qd administered for 14 days measured twice a week during compound dosing; assay type: organism-based; details: in vivo, 336 h
[4] = Metabolic stability in human liver microsomes assessed as parent compound remaining at 1 uM after 30 mins by LC-ESI-TOF/MS method; assay type: ADME, microsome; details: read-out: Stability
[5] = Antitumor activity against human HBL1 cells xenografted in NOD SCID mouse assessed as tumor growth inhibition at 10 mg/kg, po qd administered for 12 days relative to control; assay type: functional; details: 288 h, read-out: TGI
[6] = Antiproliferative activity against human ALCL cells after 72 hrs by CellTiter-Glo assay; assay type: functional, cell-based
[7] = molecular target: Serine/threonine-protein kinase 17A (Homo sapiens, UniProt Q9UEE5); test: Inhibition of DRAK1 (unknown origin)
Chain of Serine/threonine-protein kinase 17A (Q9UEE5 whole entry): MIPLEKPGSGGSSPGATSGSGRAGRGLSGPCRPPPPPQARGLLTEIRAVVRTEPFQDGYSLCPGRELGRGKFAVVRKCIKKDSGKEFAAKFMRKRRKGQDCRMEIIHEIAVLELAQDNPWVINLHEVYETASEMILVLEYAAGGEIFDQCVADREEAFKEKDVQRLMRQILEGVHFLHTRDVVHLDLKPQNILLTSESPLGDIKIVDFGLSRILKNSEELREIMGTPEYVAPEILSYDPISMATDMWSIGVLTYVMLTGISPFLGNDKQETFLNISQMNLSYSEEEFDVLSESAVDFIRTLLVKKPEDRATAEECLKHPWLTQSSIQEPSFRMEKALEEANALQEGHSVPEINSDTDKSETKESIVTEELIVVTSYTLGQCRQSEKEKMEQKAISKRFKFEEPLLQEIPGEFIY

[8] = molecular target: Eukaryotic translation initiation factor 4E-binding protein 1 (Homo sapiens) (UniProt Q13541); test: Effect on 4E-BP1 phosphorylation at Thr37/46 in human TMD8 cells at 0.01 to 10 uM after 2 hrs by immunoblot method; assay type: cell-based
Chain of Eukaryotic translation initiation factor 4E-binding protein 1 (Homo sapiens) (Q13541 whole entry): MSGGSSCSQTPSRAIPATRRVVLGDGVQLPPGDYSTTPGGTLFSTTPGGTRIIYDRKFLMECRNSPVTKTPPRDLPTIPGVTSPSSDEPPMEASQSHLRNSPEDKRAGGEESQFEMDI

[9] = Antiproliferative activity against human MCL cells after 72 hrs by CellTiter-Glo assay; assay type: functional, cell-based
[10] = molecular target: T1, MAP kinase-interacting serine/threonine-protein kinase 1/2; test: Inhibition of MNK1/2 in human TMD8 cells assessed as decrease in IL-8 mRNA half life at 10 uM incubated for 24 hrs by TaqMan assay relative to control; assay type: cell-based
[11] = Protein binding in monkey plasma; assay type: ADME, cell-free, Macaca mulatta; details: rhesus monkey, read-out: PPB
[12] = system: TMD8; test: Antitumor activity against human TMD8 cells xenografted in NOD SCID mouse assessed as tumor growth inhibition at 10 mg/kg, po qd administered for 14 days relative to control; assay type: functional; details: 336 h, read-out: TGI
[13] = Antiproliferative activity against human T-ALL cells after 72 hrs by CellTiter-Glo assay; assay type: functional, cell-based
[14] = Antitumor activity against human HBL1 cells xenografted in NOD SCID mouse assessed as tumor growth inhibition at 1 mg/kg, po qd administered for 12 days relative to control; assay type: functional; details: 288 h, read-out: TGI
[15] = Protein binding in dog plasma; assay type: ADME, cell-free, Canis lupus familiaris; details: read-out: PPB
[16] = Oral bioavailability in Sprague-Dawley rat at 10 mg/kg by LC-ESI-TOF/MS or LC-ESI-MS/MS method; assay type: ADME, organism-based; details: in vivo
[17] = molecular target: T1, MAP kinase-interacting serine/threonine-protein kinase 1/2; test: Inhibition of MNK1/2 in human TMD8 cells assessed as decrease in IL-6 levels after 48 hrs by ELISA; assay type: cell-based
[18] = system: Mus musculus; test: Toxicity in NOD SCID mouse xenografted with human HBL1 cells assessed as body weight loss at 1 to 10 mg/kg, po qd administered for 12 days measured twice a week during compound dosing; assay type: organism-based; details: in vivo, 288 h
[19] = system: Mus musculus; test: In vivo inhibition of MNK1/2 in human TMD8 cells xenografted in NOD SCID mouse assessed as reduction in eIF4E phosphorylation at Ser209 administered as po qd for 14 days measured over 24 hrs post last dose by Western blot method; assay type: functional, organism-based
[20] = molecular target: T1, MAP kinase-interacting serine/threonine-protein kinase 1/2; test: Inhibition of MNK1/2 in human TMD8 cells assessed as decrease in TNF-alpha mRNA half life at 10 uM incubated for 24 hrs by TaqMan assay relative to control; assay type: cell-based
[21] = molecular target: Dual specificity protein kinase CLK4 (Homo sapiens, UniProt Q9HAZ1); test: Inhibition of CLK4 (unknown origin)
Chain of Dual specificity protein kinase CLK4 (Q9HAZ1 whole entry): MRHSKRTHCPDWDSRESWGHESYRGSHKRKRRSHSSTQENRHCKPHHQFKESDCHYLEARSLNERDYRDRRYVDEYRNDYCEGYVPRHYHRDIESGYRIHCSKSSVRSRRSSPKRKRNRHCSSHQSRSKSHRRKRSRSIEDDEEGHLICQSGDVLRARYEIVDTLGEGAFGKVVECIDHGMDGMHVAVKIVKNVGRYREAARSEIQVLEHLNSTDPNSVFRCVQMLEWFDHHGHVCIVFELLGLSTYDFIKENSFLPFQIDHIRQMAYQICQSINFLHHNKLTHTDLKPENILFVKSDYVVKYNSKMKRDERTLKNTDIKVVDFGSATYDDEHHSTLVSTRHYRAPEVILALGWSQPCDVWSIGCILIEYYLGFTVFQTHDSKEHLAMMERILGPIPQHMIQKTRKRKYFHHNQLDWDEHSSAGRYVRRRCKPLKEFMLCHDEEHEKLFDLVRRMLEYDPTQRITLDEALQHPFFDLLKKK

[22] = Oral bioavailability in Balb/c mouse at 10 mg/kg by LC-ESI-TOF/MS or LC-ESI-MS/MS method; assay type: ADME, organism-based; details: in vivo
[23] = Antiproliferative activity against human multiple myeloma cells after 72 hrs by CellTiter-Glo assay; assay type: functional, cell-based; details: Multiple myeloma cell
[24] = Antiproliferative activity against human DLBCL cells after 72 hrs by CellTiter-Glo assay; assay type: functional, cell-based
[25] = in vitro; details: human, Caco-2
[26] = Oral bioavailability in cynomolgus monkey at 3 mg/kg by LC-ESI-TOF/MS or LC-ESI-MS/MS method; assay type: ADME, organism-based, Macaca fascicularis; details: in vivo
[27] = Protein binding in mouse plasma; assay type: ADME, cell-free; details: read-out: PPB
[28] = Protein binding in rat plasma; assay type: ADME, cell-free; details: read-out: PPB
[29] = Oral bioavailability in Beagle dog at 3 mg/kg by LC-ESI-TOF/MS or LC-ESI-MS/MS method; assay type: ADME, organism-based, Canis lupus familiaris; details: in vivo
[30] = Therapeutic index, ratio of tumor growth inhibition of human TMD8 cells xenografted in NOD SCID mouse to body weight loss in NOD SCID mouse xenografted with human TMD8 cells
[31] = Therapeutic index, ratio of tumor growth inhibition of human HBL1 cells xenografted in NOD SCID mouse to body weight loss in NOD SCID mouse xenografted with human HBL1 cells
[32] = Antiproliferative activity against human B-ALL cells after 72 hrs by CellTiter-Glo assay; assay type: functional, cell-based
[33] = Therapeutic index, ratio of tumor growth inhibition of human MDA-MB-231 cells xenografted in NCr nu/nu mouse to body weight loss in NCr nu/nu mouse xenografted with human MDA-MB-231 cells
[34] = Antiproliferative activity against human AML cells after 72 hrs by CellTiter-Glo assay; assay type: functional, cell-based
[35] = Antiproliferative activity against human Burkitt lymphoma cells after 72 hrs by CellTiter-Glo assay; assay type: functional, cell-based; details: Burkitt lymphoma cell
[36] = physchem; details: octanol/water
[37] = Protein binding in human plasma; assay type: ADME, cell-free; details: read-out: PPB
[38] = system: MDA-MB-231; test: Growth inhibition of human MDA-MB-231 cells after 72 hrs by CellTiter-Glo assay; assay type: functional, cell-based
[39] = system: MDA-MB-231; test: Antitumor activity against human MDA-MB-231 cells xenografted in NCr nu/nu mouse assessed as tumor growth inhibition at 1 to 10 mg/kg, po qd administered for 23 days relative to control; assay type: functional
[40] = Metabolic stability in rat liver microsomes assessed as parent compound remaining at 1 uM after 30 mins by LC-ESI-TOF/MS method; assay type: ADME, microsome; details: read-out: Stability
[41] = Antiproliferative activity against human CML cells after 72 hrs by CellTiter-Glo assay; assay type: functional, cell-based
[42] = molecular target: T1, MAP kinase-interacting serine/threonine-protein kinase 1/2; test: Inhibition of MNK1/2 in human TMD8 cells assessed as decrease in IL-6 mRNA half life at 10 uM incubated for 24 hrs by TaqMan assay relative to control; assay type: cell-based
[43] = system: TMD8; test: Effect on 4E-BP1 expression in human TMD8 cells after 2 hrs by immunoblot method; assay type: functional, cell-based
[44] = molecular target: T1, MAP kinase-interacting serine/threonine-protein kinase 1/2; test: Inhibition of MNK1/2 in human TMD8 cells assessed as decrease in TNF-alpha levels after 48 hrs by ELISA; assay type: cell-based
[45] = Metabolic stability in mouse liver microsomes assessed as parent compound remaining at 1 uM after 30 mins by LC-ESI-TOF/MS method; assay type: ADME, microsome; details: read-out: Stability
[46] = system: Mus musculus; test: In vivo inhibition of MNK1/2 in human TMD8 cells xenografted in NOD SCID mouse assessed as reduction in eIF4E phosphorylation at Ser209 at 1 mg/kg, po qd administered for 14 days measured over 8 hrs post last dose by Western blot method relative to control; assay type: functional
[47] = species on record: Homo sapiens; test: Effect on MAPK phosphorylation at Thr202/Tyr204 in human TMD8 cells at 0.01 to 10 uM after 2 hrs by immunoblot method; assay type: cell-based
[48] = molecular target: T1, MAP kinase-interacting serine/threonine-protein kinase 1/2; test: Inhibition of MNK1/2 in human TMD8 cells assessed as decrease in eIF4E phosphorylation at Ser209 after 2 hrs by immunoblot method; assay type: cell-based
[49] = Antiproliferative activity against human B-PLL cells after 72 hrs by CellTiter-Glo assay; assay type: functional, cell-based
[50] = system: TMD8; test: Antitumor activity against human TMD8 cells xenografted in NOD SCID mouse assessed as tumor growth inhibition at 1 mg/kg, po qd administered for 14 days relative to control; assay type: functional; details: 336 h, read-out: TGI

inhibition [2]: Dose-dependent effect | remaining at 0.5 h, 1 µM [4]: 87% | pIC50 [7]: 6.88 | Activity [8]: inactive | fold change (FC) [10]: 1.5 to 2 | fraction unbound [11]: 0.5 | fraction unbound [15]: 0.5 | bioavailability [16]: 85% | inhibition [17]: Dose-dependent effect | IC90 [19]: 376 nM | pIC50 ([19]; Mus musculus, TMD8): 7.80 | fold change (FC) [20]: 1.5 to 2 | pIC50 [21]: 6.10 | bioavailability [22]: 79% | Papp A→B at 2 h, 5 µM [25]: 7.1 ×10⁻⁶ cm/s | bioavailability [26]: 24% | fraction unbound [27]: 0.5 | fraction unbound [28]: 0.5 | bioavailability [29]: > 100% | logP [36]: 2.7 | fraction unbound [37]: 0.5 | remaining at 0.5 h, 1 µM [40]: 93% | fold change (FC) [42]: 1.5 to 2 | inhibition [44]: Dose-dependent effect | remaining at 0.5 h, 1 µM [45]: 90% | inhibition [48]: Dose-dependent effect
SMILES: Cc1cc(Nc2cc(N)ncn2)c(=O)n2c1C(=O)NC21CCCCC1 [TOMIVOSERTIB]
Activity [1]: Non-Toxic | Activity [3]: Non-Toxic | inhibition in vivo at 10 mg/kg [5]: 96% | pIC50 [6]: < 4.52 | pIC50 [9]: < 4.52 | inhibition in vivo at 10 mg/kg [12]: 75% | pIC50 [13]: < 4.52 | inhibition in vivo at 1 mg/kg [14]: 66% | Activity [18]: Non-Toxic | pIC50 [23]: > 5.00 | pIC50 [24]: > 5.00 | TI [30]: >=10 | TI [31]: >=10 | pIC50 [32]: < 4.52 | TI [33]: >=10 | pIC50 [34]: < 4.52 | pIC50 [35]: < 4.52 | growth inhibition (GI) [38]: inactive | TGI [39]: >100% | pIC50 [41]: < 4.52 | Activity [43]: inactive | inhibition in vivo at 1 mg/kg [46]: 80% | Activity [47]: inactive | pIC50 [49]: < 4.52 | inhibition in vivo at 1 mg/kg [50]: 71%
